From patent publication US12139481B2, “Compositions comprising macrocycle derivatives incorporating bridged macrocycles and methods of producing and using same” (Southwestern Oklahoma State University, priority 2015, dated 2024)
Read-outs that look alike come from different tables or passages of the source.

Legend:
[1] = tested on: Cryptococcus neoformans ATCC 90113; test: Antimicrobial microdilution assay against Cryptococcus neoformans (modified CLSI/NCCLS, optical density); type: cell-based; conditions: for X more potent than Amphotericin B: C. neoformans, ratio of molar IC50 to Amphotericin B
In short: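 Fungicidal endpoint taken by subculturing 5 μL from each clear well onto agar, MFC being the lowest concentration with no regrowth. Duplicate wells of serially diluted compound (20% DMSO/saline) in RPMI pH 6.0, read at 630 nm pre- and post-incubation, under modified CLSI methods. IC50 means 50% growth inhibition against controls.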

C. krusei ATCC 6258 = test: Antifungal broth dilution assay against C. krusei (modified CLSI); type: cell-based, Candida krusei; conditions: for X more potent than Amphotericin B: C. krusei, ratio of molar IC50 to amphotericin B; for C. krusei IC50 / IC50: in vitro
Procedure: (§1) General Experimental Procedures. All organisms were obtained from the American Type Culture Collection (Manassas, VA) and include the fungi Candida albicans ATCC 90028, C. glabrata ATCC 90030, C. krusei ATCC 6258, and Cryptococcus neoformans ATCC 90113, and the bacteria Staphylococcus aureus ATCC 29213 and methicillin-resistant S. aureus ATCC 33591 (MRS). All organisms were tested using modified versions of the CLSI (formerly NCCLS) methods. For all organisms, optical density was used to monitor growth (NCCLS, Reference Method for Broth Dilution Antifungal Susceptibility Testing of Yeasts; Approved Standard M27-A2. National Committee on Clinical Laboratory Standards, 2002 22 (15); and NCCLS, Methods for Dilution Antimicrobial Susceptibility Tests for Bacteria that Grow Aerobically; Approved Standard, Seventh Edition M7-A7. National Committee on Clinical Laboratory Standards, 2006. 26(2)).
(§2) Samples (dissolved in DMSO) were serially-diluted in 20% DMSO/saline and transferred (10 μL) in duplicate to 96 well flat bottom microplates. Inocula were prepared by correcting the OD630 of microbe suspensions in incubation broth [RPMI 1640/0.2% dextrose/0.03% glutamine/MOPS @ pH 6.0 (Cellgro) for Candida spp., Sabouraud Dextrose for C. neoformans, and cation-adjusted Mueller-Hinton (Difco) @ pH 7.3 for Staphylococcus spp. to afford an assay volume of […] and final target inocula of: Candida spp. and C. neoformans: 1.5×10^3, and Staphylococcus spp.: 5.0×10^5 CFU/ml. Final sample test concentrations were 1/100th the DMSO stock concentration. […] All organisms were read at either 530 nm using the Biotek Powerwave XS plate reader (Bio-Tek Instruments, Vermont) prior to and after incubation: Candida spp. at 35° C. for 46-50 h, Staphylococcus spp. at 35° C. for 16-20 h, and C. neoformans at 35° C. for 70-74 h. IC50s (concentrations that afford 50% inhibition relative to controls) were calculated using XLfit 4.2 software (IDBS, Alameda, CA) using fit model 201. The MIC is defined as the lowest test concentration that allows no detectable growth. Minimum fungicidal or bactericidal concentrations were determined by removing 5 μl from each clear (or blue) well, transferring to fresh media, and incubating as previously mentioned. The MFC/MBC is defined as the lowest test concentration that kills the organism (allows no growth).
(§3) Primary Analysis. Samples were tested in duplicate at one test concentration (50 μg/mL), and percent inhibitions were calculated relative to blank and growth controls. Samples showing 50% inhibition in at least one test organism were selected for dose response (Secondary) studies.
(§4) Secondary Analysis. Extracts from the Primary Assay, and first-run pure compounds and column fractions were tested in duplicate at 3 test concentrations (5-fold dilutions). Samples dissolved to 20 mg/mL in DMSO were tested at 200, 40, and 8 μg/mL. Samples dissolved to 2 mg/mL in DMSO were tested at 20, 4, and 0.8 μg/mL.

C. glabrata ATCC 90030 = test: Antifungal broth dilution assay against C. glabrata (modified CLSI); type: cell-based, Candida glabrata; conditions: for X more potent than Amphotericin B: molar IC50 ratio versus amphotericin B
Procedure: as §1, §2, §3, §4

[2] = tested on: L. donovani promastigotes; test: Antileishmanial Alamar Blue assay on promastigotes; type: cell-based, Leishmania donovani; conditions: for X more potent than Pentamidine: L. donovani, ratio of molar IC50 to Pentamidine
In short: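 Alamar Blue fluorescence (544/590 nm) quantified growth after 48 hours at 26° C of compound-treated promastigotes. Parasites were seeded at 5×10^5/mL in RPMI 1640 plus 10% FCS; drug range 50-3.1 μg/mL, and IC50 derived by plotting percent growth against test concentration.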

[3] = tested on: Staphylococcus aureus ATCC 29213; test: Antibacterial broth dilution assay against S. aureus (modified CLSI); type: cell-based; conditions: for S. aureus IC50 / IC50: in vitro; for IC50: converted with molecular weight; for X more potent than ciprofloxacen: molar IC50 ratio versus ciprofloxacen
Procedure: as §1, §2, §3, §4

[4] = in vitro, C. neoformans ATCC 90113
[5] = read-out: C. krusei IC50 (mol/L)
[6] = in vitro, converted with molecular weight
[7] = in vitro, C. neoformans ATCC 90113, read-out: C. neoformans IC50 (mol/L)
[8] = promastigotes, 48 hours, Alamar Blue
[9] = promastigotes, 48 hours, Alamar Blue, read-out: L. donavani IC50

Row | Compound | X more potent than Amphotericin B [1] | C. neoformans IC50 [1, 4] [mg/L] | X more potent than Amphotericin B (C. krusei ATCC 6258) | C. krusei IC50 (C. krusei ATCC 6258) [mg/L] | IC50 (C. krusei ATCC 6258; [5]) [µM] | C. glabrata IC50 (C. glabrata ATCC 90030; in vitro) [mg/L] | IC50 (C. glabrata ATCC 90030; [6]) [µM] | X more potent than Amphotericin B (C. glabrata ATCC 90030) | IC50 [1, 7] [µM] | X more potent than Pentamidine [2] | L. donovani IC50 [2, 8] [mg/L] | IC50 [2, 9] [µM] | also measured
1 | C[C@@H]1[C@H](O)[C@@H](C)/C=C/C=C/C=C/C=C/C=C/C=C/C=C/[C@H](O[C@@H]2O[C@H](C)[C@@H](O)[C@H](N)[C@@H]2O)C[C@@H]2O[C@](O)(C[C@@H](O)C[C@@H](O)[C@H](O)CC[C@@H](O)C[C@@H](O)CC(=O)O[C@H]1C)C[C@H](O)[C@H]2C(=O)O [AMB, Amphotericin B, reference compound] | 1.00 | 0.220 | 1.00 | 1.380 | 1.49 | 1.310 | 1.42 | 1.00 | – | – | – | – | IC50 ([1]; read-out: IC50 against C. neoformans): 0.238 µM
2 | CC(=O)[O-].F[P-](F)(F)(F)(F)F.[Ni+2].c1ccc(CN2CCN3CCCN(CC2)CCN(Cc2ccccc2)CC3)cc1 [AW039, [Ni(Bn2PBCyclen)(C2H3O2)]PF6] | 0.02 | 7.640 | 0.17 | 5.610 | 8.56 | 5.030 | 7.68 | 0.18 | 11.7 | 0.14 | 24.41 | 37.2 | S. aureus IC50 [3]: 4.73 mg/L; IC50 [3]: 7.22 µM; X more potent than ciprofloxacen [3]: 0.04
3 | c1c(CN2CCCN3CCN(CCCNCC2)CC3)cc(CN2CCCN3CCN(CCCNCC2)CC3)cc1CN1CCCN2CCN(CCCNCC1)CC2 [CDG19, tris-SB-cyclams] | 1.05 | – | 0.25 | – | – | – | – | 0.11 | – | 0.27 | – | – | IC50 ([1]; Cryptococcus neoformans, ATCC90113, in vitro, C. neoformans ATCC 90113, read-out: C. neoformans IC50 (mol/L)): 0.227 µM; IC50 ([1]; Cryptococcus neoformans, ATCC90113, in vitro, C. neoformans ATCC 90113, read-out: C. neoformans IC50 (μg/mL)): 0.18 µg/mL; IC50 ([2]; Leishmania donovani, 48 h, read-out: L. donavani IC50 (mol/L)): 20.1 µM; IC50 ([2]; Leishmania donovani, promastigotes, 48 hours, Alamar Blue, read-out: L. donovani IC50): 15.9 mg/L; IC50 (C. krusei ATCC 6258; Pichia kudriavzevii, ATCC6258, read-out: C. krusei IC50 (mol/L)): 6.04 µM; IC50 (C. krusei ATCC 6258; Pichia kudriavzevii, ATCC6258, read-out: C. krusei IC50 (μg/mL)): 4.79 µg/mL; IC50 (C. glabrata ATCC 90030; Nakaseomyces glabratus, ATCC90030, in vitro): 9.8 mg/L; IC50 (C. glabrata ATCC 90030; Nakaseomyces glabratus, ATCC90030, in vitro, converted with molecular weight): 12.3 µM
4 | Clc1cc(CN2CCNCCN3CCN(CC3)CC2)cc(Cl)n1 [OB99, (dcp)1-SB-cyclen] | 0.28 | 0.310 | 0.09 | 5.660 | 15.8 | – | – | – | 0.865 | 0.09 | 20.87 | 58.2 | S. aureus IC50 [3]: 7.520 mg/L; IC50 [3]: 21 µM; X more potent than ciprofloxacen [3]: 0.01
5 | O=[N+]([O-])c1ccc(CC2CNCCN(Cc3ccc(CN4CCCN5CCN(CCCNCC4)CC5)cc3)CCCN3CCN(CC3)C2)cc1.[Cu+2].[Cu+2].[O-][Cl+3]([O-])([O-])[O-].[O-][Cl+3]([O-])([O-])[O-].[O-][Cl+3]([O-])([O-])[O-].[O-][Cl+3]([O-])([O-])[O-] (stereo not drawn) [SJA234, [Cu2(bis-SB-C-Ar-NO2)(ClO4)4]] | 0.15 | 1.910 | 0.40 | 4.550 | 3.75 | – | – | – | 1.57 | 0.21 | 30.31 | 24.9 | –
6 | O=[N+]([O-])[O-].O=[N+]([O-])[O-].O=[N+]([O-])[O-].O=[N+]([O-])[O-].O=[N+]([O-])c1ccc(CC2CNCCN(Cc3ccc(CN4CCCN5CCN(CCCNCC4)CC5)cc3)CCCN3CCN(CC3)C2)cc1.[Ni+2].[Ni+2] (stereo not drawn) [SJA236, [Ni2(bis-SB-C-Ar-NO2)(NO3)4]] | 0.34 | 0.740 | 0.26 | 6.030 | 5.71 | 5.750 | 5.45 | 0.26 | 0.701 | 0.23 | 24.85 | 23.6 | –
7 | [Br-].[Br-].c1cc(C[N+]23CCCN(CCN4CCCN(CC2)C4)C3)ccc1C[N+]12CCCN(CCN3CCCN(CC1)C3)C2 [SLK17A, [p-(BMBCyclams)]Br2] | 0.02 | 8.250 | 1.21 | 0.880 | 1.24 | 1.317 | 1.85 | 0.77 | 11.6 | 0.23 | 16.69 | 23.4 | –
8 | [Zn3(tris-CB-Cyclams)(OAc)3][PF6]3•2.4NH4PF6 [BNS26] | 0.07 | 6.840 | 2.49 | 1.220 | 0.6 | 2.140 | 1.05 | 1.35 | 3.36 | – | – | – | –
